Assay results published in patent publication US20240002313A1, “[11C]-LABELED ACYCLIC RETINOID, CENTRAL NERVOUS SYSTEM ACTIVATOR, AND PRODUCTION METHODS FOR SAME” (NATIONAL CENTER FOR GERIATRICS AND GERONTOLOGY, priority 2020, published 2024).

Experiments:
[1] = test system: NT2 cells; test: Differentiation induction from stem cells to nerve cells; format: cell-based, human; settings: peretinoin 3 10 μM, ATRA 1 μM or 10 μM
Protocol: NTERA-2 cl.D1 [NT2/D1] cells (ATCC CRL-1973) (hereinafter described as “NT2 cells”) derived from human pluripotent embryonic cancer were adhesion cultured in a maintenance culture medium (high glucose D-MEM (Sigma-Aldrich, D6429), 10% FBS, 100 U/ml penicillin/streptomycin) under conditions of 37° C. and 5% CO2 for 3 to 4 days on a 10 cm plastic dish until becoming confluent. The NT2 cells were exfoliated by Accutase (Innovative Cell Technologies, #AT104), passaged, and maintenance cultured for 50 days. The medium was changed three times a week. The maintenance cultured NT2 cells were dispersed in a petri dish for low-attached microorganisms (STAR SDish9015, RIKEN) at a concentration of 1.5×10^6 to 2.5×10^6/dish, and suspension cultured on a vibrator (100 rpm) under conditions of 37° C. and 5% CO2, and after one day, 1 μM or 10 μM ATRA was added to induce differentiation and form spheroids. After 14 days, the spheroids were recovered, seeded on a 10 cm dish coated with 5 μg/ml poly-D-lysine (PDL) (Sigma-Aldrich)/laminin (LAM) (iMatrix-511, Nippi), and adhesion cultured under conditions of 37° C. and 5% CO2. […]

[2] = test system: NMDA-type glutamate receptors; test: Calcium imaging of reactivity to NMDA in differentiated cells; format: cell-based, human; settings: NT2-N cells, Fluo-8, 100 μM NMDA solution
Protocol: In order to confirm a statement of synaptic receptors in mature cells, a calcium influx via NMDA-type glutamate receptors was measured as follows.
A fluorescent calcium indicator Fluo-8 AM (AAT Bioquest) was dissolved in Mg-free HHBS (Hepes-buffered Hanks' balanced salt solution (1.26 mM CaCl2, 5.33 mM KCl, 0.44 mM KH2PO4, 4.17 mM NaHCO3, 137.93 mM NaCl, 0.34 mM Na2HPO4, 5.56 mM D-glucose, 20 mM HEPES, pH 7.4)) containing 0.1 μM glycine (4 μM, 2 μM, respectively). This solution (1 ml) was loaded into NT2-N cells under conditions of 37° C. and 5% CO2 (2 hours, 30 minutes, respectively), and fluo8 was loaded into the cells. Thereafter, an extracellular fluid was replaced with Mg-free HHBS containing 0.1 μM glycine, and it was used for the following measurement after being left in an incubator (37° C., 5% CO2) of a living cell time-lapse imaging device (BioStation IM-Q, Nikon) for 1 hour or more. For the NT2-N cells placed in the device, 5 to 10 fields of view to be analyzed were manually set, and for each field of view, fluorescence intensity was continuously recorded every 2 seconds for 5 minutes at an excitation wavelength of 480 nm/a fluorescence wavelength of 520 nm. Further, after a certain period of time elapsed from the start of recording, 100 μl of the 100 μM NMDA solution (Mg-free HHBS containing 0.1 μM glycine) prepared above was administered.

[3] = Non Patent Literature 2 and 3; cited from earlier work
[4] = PET pharmacokinetic test of 11C-labeled acyclic retinoids in rats; format: in vivo, Sprague-Dawley rats; settings: rat, i.v.
Protocol: (§1) The ^11C-labeled acyclic retinoid 4c and the ^11C-labeled peretinoin 3 synthesized by the methods described above were administered intravenously (i.v.) to Sprague-Dawley rats and cynomolgus monkeys as a PET probe, and PET images were photographed.

[5] = PET pharmacokinetic test of 11C-labeled acyclic retinoids in cynomolgus monkeys; format: in vivo; settings: cynomolgus monkey, i.v.
Protocol: as §1

[6] = test system: cerebral cortex-striatal tissue sections; test: Inhibitory effect on thrombin toxicity in cultured brain slices; format: cell-based, Wistar/ST rat; settings: 10, 20, 30 μM; thrombin 100 U/ml, 72 hours
Protocol: (§2) Thrombin is known to induce cerebral cortex cell death and striatal tissue atrophy. Therefore, an experiment for evaluating thrombin toxicity was performed. In other words, a coronal section having a thickness of 300 μm was prepared from a brain of a Wistar/ST rat aged 2 to 3 days after birth, a fan-shaped tissue piece including a cerebral cortex and striatum was cut out, and then left to stand on a porous membrane (Millicell-CM, Millipore Corporation), and culture was maintained at a gas-liquid interface under a conditions of 34° C./5% CO2 (medium composition: 50% minimal essential medium, 25% Hanks' balanced salt solution, 25% horse serum). […] PI fluorescence images were acquired using a fluorescence microscope (Keyence) 72 hours after a start of thrombin treatment, and a degree of cell death was evaluated using fluorescence intensity of a cortical region as an index (sections of 100 μM NMDA treated for 72 hours were provided for each experiment, and their PI fluorescence intensity was standardized as 100%). Further, an area of a striatal region in each tissue piece was measured from bright field images of cultured tissue pieces acquired before and after the thrombin treatment, and a rate of tissue atrophy due to the thrombin treatment was quantified.

[7] = test system: cerebral cortex-striatal tissue sections; test: Evaluation using K252a (TrkB inhibitor) of the cytoprotective effect against thrombin; format: cell-based, Wistar/ST rat; settings: thrombin + K252a (3 μM)
Protocol: as §2, with “quantified. […]” for “quantified.”

[8] = test system: cerebral hemorrhage; test: Effect on cerebral hemorrhage pathology (collagenase injection into striatum); format: in vivo, ICR mouse
Protocol: A male ICR mouse aged 8 to 10 weeks was placed in a brain stereotaxic apparatus under triple anesthesia, and bleeding was induced by injecting 0.035 U of collagenase type VII (Sigma) into a fixed coordinate (2.3 mm lateral to a median, 0.2 mm posterior to a bregma suture, 3.5 mm below a skull) in the striatum over 2.5 minutes using a 30 gauge needle. After that, the surface of the skull was reduced with dental cement, and breeding was continued. The peretinoin 3 (40 mg/kg) was suspended in water together with 0.5% carboxymethyl cellulose, and administered intragastrically using an oral sonde three times in total 3, 27, and 51 hours after the bleeding induction. Note that for comparison, 0.5% carboxymethyl cellulose without the peretinoin 3 was also administered intragastrically in a similar manner. A degree of motor dysfunction in the mouse was evaluated by performing two types of motor function tests (beam walking test, modified limb-placing test) 6, 24, 48, and 72 hours after the bleeding induction. Further, after completion of the motor function test 72 hours later, the mouse was perfused and fixed under anesthesia, and the brain was extracted to prepare a frozen coronary section having a thickness of 16 μm. The effects of the peretinoin 3 were evaluated by identifying microglia, astrocytes, and neurons in the brain tissue, respectively, through immunohistochemistry using antibodies against Iba1, GFAP, and NeuN, and quantifying the number of cells in a given area or an immune reaction positive area.

[9] = radioactivity in brain for each time
[10] = radioactivity in brain over time
[11] = 40 mg/kg intragastrically, 6, 24, 48, 72 hours after bleeding
[12] = 40 mg/kg intragastrically, brain taken 72 hours after bleeding

With `CC1=C(/C=C/C(C)=C/C=C/C(C)=C/C(=O)O)C(C)(C)CCC1` [ATRA, All-trans-retinoic acid, reference compound] the “number of cells expressing MAP2 without expressing nestin (differentiation induction into nerve cells)” value [1] was “increased” and the “expression of NMDA-type glutamate receptors in induced nerve cells (calcium imaging, NMDA)” value [2] was “expressed NMDA-type glutamate receptors”.

For `CC1(C)CCC(C)(C)c2cc(NC(=O)c3ccc([11C](=O)O)cc3)ccc21` [^11C-labeled Am80], the “intracerebral migration when used as a PET probe” value [3] is given as “no intracerebral migration was observed”.

For `Cc1cc2c(cc1-n1nnc3cc([11C](=O)O)ccc31)C(C)(C)CCC2(C)C` [^11C-labeled CBt-PMN], the “intracerebral migration when used as a PET probe” value [3] is given as “higher intracerebral migration than that of ^11C-labeled bexarotene”.

For `CC(C)=CCC/C(C)=C/CC/C(C)=C/C=C/C([11CH3])=C/C(=O)O` [^11C-labeled peretinoin 3], the “migration into the brain (PET image)” value ([4]; PET probe) was “migrated into a brain”, the “start of migration into the brain after administration” value [4, 9] was “within several minutes” and the “accumulation in the brain compared with the concentration when uniformly distributed throughout the body” value [4, 10] was 1.3 times. For the same compound, the “migration into the brain (PET image)” value ([5]; PET probe) was “migrated into a brain”, the “start of migration into the brain after administration” value [5, 9] was “within several minutes” and the “accumulation in the brain compared with the concentration when uniformly distributed throughout the body” value [5, 10] was 3.0 times.

For `CC(C)=CCC/C(C)=C/CC/C(C)=C/C=C/C(C)=C/C(=O)O` [peretinoin 3, (2E,4E,6E,10E)-3,7,11,15-tetramethylhexadeca-2,4,6,10,14-pentaenoic acid], the “cerebral cortex cell death induced by thrombin (PI fluorescence)” value [6] was “concentration-dependent and significantly suppressed”, the “striatal tissue atrophy induced by thrombin” value [6] was “concentration-dependent and significantly suppressed” and the “inhibitory effect on striatal atrophy in the presence of K252a” value [7] was “not blocked by K252a”. For the same compound, the “protective effect on cerebral cortex cells in the presence of K252a” value [7] was “blocked by K252a”, the “changes in body weight after cerebral hemorrhage” value ([8]; 40 mg/kg intragastrically 3, 27, 51 hours after bleeding induction) was “suppressed weight loss” and the “beam-walking test: fall rate” value [8, 11] was “decrease”. The “beam-walking test: score” value [8, 11] was “increase”, the “beam-walking test: walking width” value [8, 11] was “increase” and the “modified limb-placing test: deficit score” value [8, 11] was “decrease”. For the same compound, the motor dysfunction ([8]; 40 mg/kg intragastrically, 24 to 72 hours after bleeding) was “significantly alleviated”, the “accumulation of activated microglia around a hematoma (Iba1 immunohistochemistry)” value [8, 12] was “significantly suppressed” and the “shedding of nerve cells in the hematoma (NeuN immunohistochemistry)” value [8, 12] was “suppressed”. The “number of cells expressing MAP2 without expressing nestin (differentiation induction into nerve cells)” value [1] was “increased” and the “expression of NMDA-type glutamate receptors in induced nerve cells (calcium imaging, NMDA)” value [2] was “expressed NMDA-type glutamate receptors”.
